Experimental findings from patent US12440431B2, “Cosmetic comprising ultraviolet wavelength conversion substance” (Shiseido Company, Ltd., priority 2019, dated 2025) are described below.

Experiment [1] has as its system Human dermal fibroblasts. The experiment can be described thus: Restoration of cell activity decreased by prior UV irradiation (AlamarBlue). The experiment is classed as cell-based. Conditions: pre-irradiation 400 mJ/cm^2 without substance, then UV 0-200 mJ/cm^2 through 0.4% or 2% C-phycocyanin (equivalent effect), FIG. 5. On the procedure: (§1) 1. Human dermal fibroblasts and human skin keratinocytes purchased from Kurabo Industries Ltd. were used. A cell suspension (1 mL) stored in liquid nitrogen was thawed in a water bath (37° C.) to an extent that small ice pellets remained, and then diluted with 9 mL of warm medium. 2. The diluted suspension was mixed gently and then transferred to a T75 flask and incubated overnight at 37° C. 3. The next day, the medium was replaced with 10 mL of fresh medium. 4. The medium was replaced periodically (once every 2 days for fibroblasts and once every 2 to 3 days for keratinocytes) and cell proliferation was continued. Meanwhile, the cells were observed using a microscope, and it was confirmed that the cells grew in the correct form. 5. After the cells reached about 80% confluence, the cells were passaged. The cells were passaged by washing the cells once with 10 mL of warm PBS, adding 5 mL of warm trypsin to a T75 flask, covering the bottom of the flask with a trypsin solution, followed by aspirating at room temperature for 1 minute. 6. The flask was allowed to stand in an oven at 37° C. for (maximum) 2 minutes for fibroblasts and (maximum) 7 minutes for keratinocytes. The cells were observed using a microscope and confirmed to be small and oval. 7. Thereafter, the side of the T75 flask was lightly tapped to release the cells. […]

Experiment [2] deals with Human dermal fibroblasts. The experiment is described as follows: Cell activity (AlamarBlue) of cells irradiated with UV through a UV wavelength conversion substance solution. In kind it is cell-based. Conditions: UV dose 0-100 mJ/cm^2, FIG. 3. How it is done:
The UV wavelength conversion substances (1) and (2) were dissolved in water to prepare solutions having a concentration of 1% or 5%.
The UV wavelength conversion substances (3) and (4) were dispersed in alcohol to prepare 5% and 10% dispersions.
as §1, with “6.” for “6. The flask was allowed to stand in an oven at 37° C. for (maximum) 2 minutes for fibroblasts and (maximum) 7 minutes for keratinocytes. The cells were observed using a microscope and confirmed to be small and oval. 7. Thereafter, the side of the T75 flask was lightly tapped to release the cells.”

As to C-phycocyanin, the “cell activity (relative fluorescence intensity) after prior decrease by UV” value in the experiment with Human dermal fibroblasts [1] is recorded as “cell activity was recovered”. The “cell activity (relative fluorescence intensity)” value in the experiment on Human dermal fibroblasts [2] (0.4% C-phycocyanin solution) is recorded as “the decrease in cell activity was suppressed”; with Human dermal fibroblasts [2] (2% C-phycocyanin solution) it was “the cell activity was even increased compared to the case where UV irradiation was not carried out”.
